Read-outs that look alike come from different tables or passages of the source.
Key:
[1] = target: T1, human serotonin 5-HT2B receptor (Homo sapiens, UniProt P41595); experiment: Radioligand binding assay, human 5-HT2B receptors ([3H]LSD); conditions: human 5-HT2b; Example 16 table; read-out: IC50 (nM) 5-HT2b
T1 construct: expressed in transfected cells; host or cells: CHO-K1
Description: This assay measures binding of [^3H]LSD to human serotonin 5-HT2B receptors. CHO-K1 cells stably transfected with a plasmid encoding the human serotonin 5-HT2B receptor were used to prepare membranes in modified Tris-HCl pH 7.4 buffer using standard techniques. […] Non-specific binding was estimated in the presence of 10 μM serotonin. Membranes were filtered and washed 3 times and the filters were counted to determine [^3H]LSD specifically bound. See Bonhaus, D. W. et al. “The pharmacology and distribution of human 5-hydroxytryptamine2B (5-HT2B) receptor gene products: comparison with 5-HT2A and 5-HT2C receptors” Brit.
The human 5-HT2b screen was conducted according to Wolf, W. A. et al. J. Neurochem.

[2] = target: T2, human serotonin 5-HT2A receptor (Homo sapiens, UniProt P28223); experiment: Radioligand binding assay, human 5-HT2A receptors ([3H]Ketanserin)
T2 construct: expressed in transfected cells; host or cells: CHO-K1
Description: (§1) The human 5-HT2a and 5-HT2b screens were conducted according to Bonhaus, D. W. et al. Br. J. Pharmacol. 1995, 115, 622. The human 5-HT2c screen was conducted according to Wolf, W. A. et al. J. Neurochem. 1997, 69, 1449. The human 5-HT6 screen was conducted according to Monsma, F. J. et al. Mol. Pharmacol. 1993, 43, 320.
CHO-K1 cells stably transfected with a plasmid encoding the human serotonin 5-HT2A receptor were used to prepare membranes in modified Tris-HCl pH 7.7 buffer using standard techniques. […] Non-specific binding was estimated in the presence of 1 μM mianserin. […] See Bonhaus, D. W. et al. “The pharmacology and distribution of human 5-hydroxytryptamine2B (5-HT2B) receptor gene products: comparison with 5-HT2A and 5-HT2C receptors” Brit. J. Pharmacol. 115: 622–628, 1995; and Saucier, C and Albert, P. R. “Identification of an endogenous 5-hydroxytryptamine2A receptor in NIH-3T3 cells: agonist-induced down-regulation involves decreases in receptor RNA and number” J. Neurochem. 68: 1998–2011, 1997.
(§2) The human 5-HT2a and 5-HT2b screens were conducted according to Bonhaus, D. W. et al. Br. J. Pharmacol. 1995, 115, 622. The human […], W. A. et al. J. Neurochem. 1997, 69, 1449. The human 5-HT6 screen was conducted according to Monsama, F. J. et al. Mol. Pharmacol. 1993, 43, 320. The assay to human D3 receptors was conducted according to Sokoloff, P. et al. Nature 1990, 347;146. The human dopamine transporter assay was conducted according to Gu, H. et. al. J. Biol. Chem. 1994, 269 (10);7124; and Giros, B. et al. Trends. Pharmacol. Sci. 1993, 14: 43. The human muscarinic M1–M4 screens were conducted according to Buckley N. J. et al. Mol. Pharmacol. 1989, 35:469.

[3] = target: T3, human serotonin 5-HT6 receptor (Homo sapiens, UniProt P50406); experiment: Radioligand binding assay, human 5-HT6 receptors ([3H]LSD); conditions: read-out: IC50 (nM) 5-HT6
T3 construct: expressed in transfected cells; host or cells: HeLa/E6-7
Description: as §1
This assay measures binding of [^3H]LSD (lysergic acid diethylamide) to human serotonin 5-HT6 receptors. HeLa/E6–7 cells stably transfected with a plasmid encoding the human serotonin 5-HT6 receptor were used to prepare membranes in modified Tris-HCl pH 7.4 buffer using standard techniques. A 30 μg aliquot of membrane was incubated with 1.5 nM [^3H]LSD for 120 minutes at 37° C. Non-specific binding was estimated in the presence of 5 μM 5-HT. Membranes were filtered and washed 3 times and the filters were counted to determine [^3H]LSD specifically bound. See Monsma, Jr., F. J. et al. “Cloning and expression of a novel serotonin receptor with high affinity for tricyclic psychotropic drugs” Mol. Pharmacol. 43: 320–327, 1993.
as §2

[4] = target: T4, human dopamine D3 receptor (Homo sapiens, UniProt P35462); experiment: Radioligand binding assay, human dopamine D3 receptors ([3H]Spiperone)
T4 construct: expressed in transfected cells; host or cells: CHO
Description: The assay for binding to human D3 receptors was conducted according to Sokoloff, P. et al. Nature 1990, 347, 146.
CHO cells stably transfected with a plasmid encoding the human dopamine D3 receptor were used to prepare membranes in modified Tris-HCl pH 7.4 buffer using standard techniques. […] Non-specific binding was estimated in the presence of 25 μM S-(−)-sulpiride. […] See Sokoloff, P. et al. “Molecular cloning and characterization of a novel dopamine receptor (D3) as a target for neuroleptics” Nature 347: 146–151, 1990.
as §2

[5] = target: T5, human serotonin 5-HT2C receptor (Homo sapiens, UniProt P28335); experiment: Radioligand binding assay, human 5-HT2C receptors ([3H]Mesulergine)
T5 construct: expressed in transfected cells; host or cells: CHO-K1
T5 sequence (P28335 33-458): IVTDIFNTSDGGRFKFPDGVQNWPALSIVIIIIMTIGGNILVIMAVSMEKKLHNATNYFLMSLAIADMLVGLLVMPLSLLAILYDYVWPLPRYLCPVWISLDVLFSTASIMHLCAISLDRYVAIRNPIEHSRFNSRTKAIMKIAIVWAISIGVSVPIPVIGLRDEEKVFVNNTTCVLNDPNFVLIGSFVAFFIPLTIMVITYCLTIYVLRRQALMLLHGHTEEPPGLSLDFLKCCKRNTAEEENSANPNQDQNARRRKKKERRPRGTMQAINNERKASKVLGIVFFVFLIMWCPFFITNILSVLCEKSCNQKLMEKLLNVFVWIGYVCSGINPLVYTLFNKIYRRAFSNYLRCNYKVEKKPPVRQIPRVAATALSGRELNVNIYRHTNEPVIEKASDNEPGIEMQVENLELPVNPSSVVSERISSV
Description: as §1
CHO-K1 cells stably transfected with a plasmid encoding the human serotonin 5-HT2C receptor were used to prepare membranes in modified Tris-HCl pH 7.7 buffer using standard techniques. […] Non-specific binding was estimated in the presence of 1 μM mianserin. […] See Wolf, W. A. and Schutz, J. S. “The serotonin 5-HT2C receptor is a prominent serotonin receptor in basal ganglia: evidence from functional studies on serotonin-mediated phosphoinositide hydrolysis” J. Neurochem. 69: 1449–1458, 1997.
as §2

[6] = human 5-HT2a, Example 16 table, read-out: IC50 (nM) 5-HT2a
[7] = Example 20 table, read-out: IC50 (nM) Against Human D3 Receptors
[8] = human 5-HT2c, Example 16 table, read-out: IC50 (nM) 5-HT2c
[9] = human, Example 100 table, read-out: IC50 (nM) 5-HT2A
[10] = human, Example 100 table, read-out: IC50 (nM) D3
[11] = human, Example 100 table, read-out: IC50 (nM) 5-HT2C

T2 sequence (P28223 whole entry): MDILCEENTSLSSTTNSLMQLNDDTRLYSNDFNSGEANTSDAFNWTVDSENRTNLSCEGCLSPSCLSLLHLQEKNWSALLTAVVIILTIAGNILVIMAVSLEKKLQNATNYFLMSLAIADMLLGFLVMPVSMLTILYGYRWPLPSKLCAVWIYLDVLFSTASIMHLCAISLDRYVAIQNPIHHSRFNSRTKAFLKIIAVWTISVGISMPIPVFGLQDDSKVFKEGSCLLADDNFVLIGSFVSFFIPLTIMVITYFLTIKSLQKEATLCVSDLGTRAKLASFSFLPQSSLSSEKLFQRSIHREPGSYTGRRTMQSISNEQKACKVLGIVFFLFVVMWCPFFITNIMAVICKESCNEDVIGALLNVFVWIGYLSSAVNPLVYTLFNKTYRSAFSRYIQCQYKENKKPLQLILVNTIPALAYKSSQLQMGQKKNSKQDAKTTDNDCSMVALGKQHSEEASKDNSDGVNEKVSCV
T4 sequence (P35462 whole entry): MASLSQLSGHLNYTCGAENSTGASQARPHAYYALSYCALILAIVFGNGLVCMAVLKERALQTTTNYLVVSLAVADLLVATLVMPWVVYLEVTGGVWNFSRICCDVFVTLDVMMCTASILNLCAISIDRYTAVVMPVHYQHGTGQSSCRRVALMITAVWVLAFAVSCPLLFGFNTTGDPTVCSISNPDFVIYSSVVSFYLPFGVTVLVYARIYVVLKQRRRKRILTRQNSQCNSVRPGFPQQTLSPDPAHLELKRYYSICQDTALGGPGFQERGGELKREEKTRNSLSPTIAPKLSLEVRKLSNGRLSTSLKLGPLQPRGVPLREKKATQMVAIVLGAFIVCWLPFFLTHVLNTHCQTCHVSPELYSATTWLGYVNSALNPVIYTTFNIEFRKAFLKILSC
T3 sequence (P50406 whole entry): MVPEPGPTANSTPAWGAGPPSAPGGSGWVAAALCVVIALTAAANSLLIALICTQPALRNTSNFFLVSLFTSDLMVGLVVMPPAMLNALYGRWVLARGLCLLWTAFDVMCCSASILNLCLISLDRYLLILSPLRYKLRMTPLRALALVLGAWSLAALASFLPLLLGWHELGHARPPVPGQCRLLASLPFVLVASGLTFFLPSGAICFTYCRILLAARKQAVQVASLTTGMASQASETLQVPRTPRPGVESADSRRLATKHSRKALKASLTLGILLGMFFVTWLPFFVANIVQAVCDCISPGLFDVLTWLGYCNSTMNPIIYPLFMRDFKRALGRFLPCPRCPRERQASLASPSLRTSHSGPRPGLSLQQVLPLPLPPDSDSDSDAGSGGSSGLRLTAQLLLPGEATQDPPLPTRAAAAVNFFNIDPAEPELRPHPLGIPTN
T1 sequence (P41595 whole entry): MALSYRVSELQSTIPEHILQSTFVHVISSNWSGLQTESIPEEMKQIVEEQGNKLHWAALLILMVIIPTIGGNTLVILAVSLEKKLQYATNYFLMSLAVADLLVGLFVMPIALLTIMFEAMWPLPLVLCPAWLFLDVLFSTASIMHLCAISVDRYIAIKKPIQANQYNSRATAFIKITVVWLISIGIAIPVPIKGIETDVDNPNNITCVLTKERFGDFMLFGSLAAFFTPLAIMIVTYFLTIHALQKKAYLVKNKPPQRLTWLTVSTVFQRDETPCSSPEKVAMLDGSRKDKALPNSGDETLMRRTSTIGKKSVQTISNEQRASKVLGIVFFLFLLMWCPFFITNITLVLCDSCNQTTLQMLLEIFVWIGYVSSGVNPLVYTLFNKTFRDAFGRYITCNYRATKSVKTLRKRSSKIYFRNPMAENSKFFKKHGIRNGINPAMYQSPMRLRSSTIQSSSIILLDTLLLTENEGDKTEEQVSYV

SMILES | IC50 [2, 9] | IC50 ([3]; human, Example 100 table) | IC50 [4, 10] | IC50 [5, 11] | also measured
Clc1cccc(C2(c3csc(C4CCCNC4)n3)CCOCC2)c1 (centres unmarked) [Compound 38] | – | – | – | – | IC50 [1]: > 1000 nM; IC50 [2, 6]: > 1000 nM; IC50 ([3]; human 5-HT6, Example 16 table): < 1000 nM; IC50 [4, 7]: > 1000 nM; IC50 [5, 8]: > 1000 nM
CCN(CC)CCCNc1nc(C2(c3ccc(Cl)cc3)CCCCC2)cs1 [Compound 103] | < 1000 nM | < 1000 nM | < 1000 nM | < 1000 nM | –
Clc1ccc(C2(c3csc(N4CCOCC4)n3)CCOCC2)cc1 [Compound 124, 4-{4-[4-(4-Chloro-phenyl)-tetrahydro-pyran-4-yl]-thiazol-2-yl}-morpholine] | > 1000 nM | > 1000 nM | > 1000 nM | > 1000 nM | –
CCN(CC)CCCNc1nc(C2(c3cccc(Cl)c3)CCOCC2)cs1 [Compound 98, N-{4-[4-(3-chloro-phenyl)-tetrahydro-pyran-4yl]-thiazol-2-yl}-N,N-diethyl-propane-1,3-diamine] | – | > 1000 nM | > 1000 nM | – | –
Fc1ccccc1C1(c2csc(N3CCNCC3)n2)CCCCC1 [Compound 127, 1-{4-[1-(2-Fluorophenyl)-cyclohexyl]-thiazol-2-yl}-piperazine] | – | < 100 nM | < 1000 nM | – | –
COc1ccccc1N1CCN(c2nc(C3(c4ccccc4F)CCCCC3)cs2)CC1 [Compound 97] | > 1000 nM | > 1000 nM | > 1000 nM | > 1000 nM | –
CC(C)N1CCN(c2nc(C3(c4ccc(F)cc4)CCCCC3)cs2)CC1 [Compound 80] | – | – | – | – | IC50 [1]: < 1000 nM; IC50 [2, 6]: > 1000 nM; IC50 ([3]; human 5-HT6, Example 16 table): > 1000 nM; IC50 [4, 7]: < 1000 nM; IC50 [5, 8]: < 1000 nM
Clc1ccc(C2(c3csc(N4CCC(N5CCCCC5)CC4)n3)CCCCC2)cc1 [Compound 107] | – | > 1000 nM | < 1000 nM | – | –
CN1CCCC1CCNc1nc(C2(c3ccc(Cl)cc3)CCCCC2)cs1 (centres unmarked) [Compound 95, {4-[1-(4-chloro-phenyl)-cyclohexyl]-thiazol-2-yl}-[2-(1-methyl-pyrrolidin-2-yl)-ethyl] amine] | < 1000 nM | < 1000 nM | < 1000 nM | < 1000 nM | –
CN1CCCC1CCNc1nc(C2(c3ccccc3F)CCCCC2)cs1 (single isomer, unassigned) [Compound 129, {4-[1-(2-fluorophenyl)-cyclohexyl]-thiazol-2-yl}-[2-(1-methyl-pyrrolidin-2-yl)-ethyl]-amine] | < 1000 nM | < 1000 nM | < 1000 nM | < 1000 nM | –
Fc1ccccc1C1(c2csc(NCCCN3CCOCC3)n2)CCCC1 [Compound 96] | > 1000 nM | > 1000 nM | > 1000 nM | > 1000 nM | –
CN1CCC(N(C)c2nc(C3(c4ccc(Cl)cc4)CCCCC3)cs2)C1 (centres unmarked) [Compound 108] | – | < 100 nM | < 1000 nM | – | –
CN1CCCN(c2nc(C3(c4ccc(Cl)cc4)CCCC3)cs2)CC1 [Compound 105] | < 1000 nM | < 1000 nM | < 100 nM | < 1000 nM | –
CN1CCCN(c2nc(C3(c4ccc(Cl)cc4)CCCCC3)cs2)CC1 [Compound 115] | – | < 1000 nM | < 1000 nM | – | –
Clc1ccc(C2(c3csc(NC4CCN(Cc5ccccc5)C4)n3)CCCCC2)cc1 (centres unmarked) [Compound 119] | – | > 1000 nM | > 1000 nM | – | –
CN(C)C1CCN(c2nc(C3(c4ccccc4F)CCCCC3)cs2)C1 (racemic) [Compound 136, (1-{4-[1-(2-Fluoro-phenyl)-cyclohexyl]-thiazol-2-yl}-pyrrolidin-3-yl)-dimethylamine] | – | > 1000 nM | > 1000 nM | – | –
CCN1CCCC1CNc1nc(C2(c3ccccc3F)CCCCC2)cs1 (racemic) [Compound 131, (1-ethyl-pyrrolidin-2-ylmethyl)-{4-[1-(2-fluorophenyl)-cyclohexyl]-thiazol-2-yl}-amine] | – | < 1000 nM | < 1000 nM | – | –
Clc1ccc(C2(c3csc(N4CCNCC4)n3)CCCC2)cc1 [Compound 109] | – | < 100 nM | < 1000 nM | – | –
CN(C)C1CCN(c2nc(C3(c4ccc(Cl)cc4)CCCC3)cs2)C1 (centres unmarked) [Compound 118] | – | < 1000 nM | > 1000 nM | – | –
CN(C)C1CCN(c2nc(C3(c4ccc(Cl)cc4)CCCCC3)cs2)C1 (centres unmarked) [Compound 117] | – | > 1000 nM | > 1000 nM | – | –
Fc1ccccc1C1(c2csc(N3CCN(Cc4ccc(Cl)cc4)CC3)n2)CCCC1 [Compound 110] | – | > 1000 nM | > 1000 nM | – | –
Clc1ccc(C2(c3csc(NCCN4CCOCC4)n3)CCCCC2)cc1 [Compound 102] | – | < 1000 nM | > 1000 nM | – | –
Clc1ccc(C2(c3csc(NCCN4CCCCC4)n3)CCCC2)cc1 [Compound 101] | – | < 1000 nM | < 1000 nM | – | –
Clc1ccc(C2(c3csc(NCCCN4CCOCC4)n3)CCCC2)cc1 [Compound 100] | > 1000 nM | < 1000 nM | > 1000 nM | < 1000 nM | –
CCN(CC)CCCNc1nc(C2(c3ccccc3F)CCCC2)cs1 [Compound 114] | – | > 1000 nM | > 1000 nM | – | –
Clc1ccc(C2(c3csc(NCCCN4CCOCC4)n3)CCCCC2)cc1 [Compound 94, {4-[1-(4-chloro-phenyl)-cyclohexyl]-thiazol-2-yl}-(3-morpholin-4-yl-propyl)-amine] | > 1000 nM | < 1000 nM | > 1000 nM | < 1000 nM | –
CNC1CCN(c2nc(C3(c4ccc(Cl)cc4)CCCCC3)cs2)C1 (centres unmarked) [Compound 106] | > 1000 nM | > 1000 nM | > 1000 nM | > 1000 nM | –

From patent US7087623B2, “Thiazole and other heterocyclic ligands for mammalian dopamine, muscarinic and serotonin receptors and transporters, and methods of use thereof” (Sepracor Inc., priority 2001, dated 2006)
